Patent publication US10036011B2, “Scavenger compounds for improved sequencing-by-synthesis” (QIAGEN Waltham, Inc., priority 2016, dated 2018)
Entries after “also recorded” stand apart in the source; their conditions may differ. Each block holds one compound with its values, some of them ahead of it.

Key:
[1] = Carnitine and acetylcarnitine solubility and stability in Cleave reagent; assay type: physicochemical; conditions: for solubility into Cleave reagent: 10 mM, 25 mM and 50 mM; for stability against discoloration and precipitation: cleave reagent formulations, storage at room temperature; for solubility in cleave reagent formulations: over a range of concentrations; for stability of solutions (discoloration or precipitate): room temperature (RT), a few hours of storage
Description: L-carnitine and O-acetyl-carnitine were tested for solubility and stability in cleave reagent formulations similarly to IPA. […] See, Example V.
This example tests carnitine-based compounds for solubility into Cleave reagent. Various concentrations (10 mM, 25 mM and 50 mM) of carnitine and acetylcarnitine were tested for solubility and stability.

[2] = IPA solubility and stability in Cleave 1 solution / Cleave Reagent formulations (concentration curve); assay type: physicochemical; conditions: for Color / Precipitate / Solubility / pH: Cleave 1 solution
Description: IPA was initially tested for solubility and stability in Cleave Reagent formulations. […] IPA was then tested by sequencing in a head-to-head comparison with the reference cleaving reagent, gallic acid, to provide a performance benchmark. IPA was implemented into a sequencing workflow as a standalone powder component to the cleave reagent. See, Example IV.
This example tests alternative formulations and chemistry for a cleave mix including TCEP as a standard reducing agent and IPA as a radical oxygen scavenger. The goal is to test both solubility and the ease of implementation into a kit configuration.
Formation of solid components directly within a Cleave 1 solution using an IPA concentration curve (10 mM, 25 mM and 50 mM) was assessed by measuring solubility, color, precipitate observation and pH level.

solubility into Cleave reagent [1]: very soluble
solubility in cleave reagent formulations [1]: highly soluble
Compound: C[N+](C)(C)C[C@H](O)CC(=O)[O-] [L-carnitine]
stability against discoloration and precipitation [1]: stable against discoloration and precipitation
stability of solutions (discoloration or precipitate) [1]: no discoloration or precipitate were observed

Compound: CC(=O)O[C@H](CC(=O)[O-])C[N+](C)(C)C [O-acetyl-carnitine, O-acetyl-L-carnitine]
solubility into Cleave reagent [1]: very soluble
stability against discoloration and precipitation [1]: stable against discoloration and precipitation
solubility in cleave reagent formulations [1]: highly soluble
stability of solutions (discoloration or precipitate) [1]: no discoloration or precipitate were observed

Color ([2]; 10 mM/2-8 C.°, 0 hours): No color; also recorded: Transparent
Precipitate ([2]; 10 mM/2-8 C.°, 0 hours): None
Solubility ([2]; 10 mM/2-8 C.°, 0 hours): Excellent
pH ([2]; 10 mM/2-8 C.°, 0 hours): 12.81
Color ([2]; 10 mM/2-8 C.°, 8 hours): Transparent; also recorded: No color
Precipitate ([2]; 10 mM/2-8 C.°, 8 hours): None
Solubility ([2]; 10 mM/2-8 C.°, 8 hours): Excellent
pH ([2]; 10 mM/2-8 C.°, 8 hours): 12.80
Color ([2]; 10 mM/2-8 C.°, 48 hours): Transparent; also recorded: No color
Precipitate ([2]; 10 mM/2-8 C.°, 48 hours): None
Solubility ([2]; 10 mM/2-8 C.°, 48 hours): Excellent
pH ([2]; 10 mM/2-8 C.°, 48 hours): 12.83
Color ([2]; 10 mM/RT, 0 hours): Transparent; also recorded: No color
Precipitate ([2]; 10 mM/RT, 0 hours): None
Solubility ([2]; 10 mM/RT, 0 hours): Excellent
pH ([2]; 10 mM/RT, 0 hours): 12.88
Color ([2]; 10 mM/RT, 8 hours): Transparent; also recorded: No color
Precipitate ([2]; 10 mM/RT, 8 hours): None
Solubility ([2]; 10 mM/RT, 8 hours): Excellent
pH ([2]; 10 mM/RT, 8 hours): 12.83
Color ([2]; 10 mM/RT, 48 hours): Transparent; also recorded: No color
Precipitate ([2]; 10 mM/RT, 48 hours): None
Solubility ([2]; 10 mM/RT, 48 hours): Excellent
pH ([2]; 10 mM/RT, 48 hours): 12.79
Precipitate ([2]; 25 mM RT, 0 hours): None
Solubility ([2]; 25 mM RT, 0 hours): Excellent
pH ([2]; 25 mM RT, 0 hours): 12.78
Precipitate ([2]; 25 mM/2-8 C.°, 0 hours): None
Solubility ([2]; 25 mM/2-8 C.°, 0 hours): Excellent
pH ([2]; 25 mM/2-8 C.°, 0 hours): 12.75
Precipitate ([2]; 25 mM/2-8 C.°, 8 hours): None
Solubility ([2]; 25 mM/2-8 C.°, 8 hours): Excellent
pH ([2]; 25 mM/2-8 C.°, 8 hours): 12.71
Precipitate ([2]; 25 mM/2-8 C.°, 48 hours): None
Solubility ([2]; 25 mM/2-8 C.°, 48 hours): Excellent
pH ([2]; 25 mM/2-8 C.°, 48 hours): 12.76
Precipitate ([2]; 25 mM/RT, 8 hours): None
Solubility ([2]; 25 mM/RT, 8 hours): Excellent
pH ([2]; 25 mM/RT, 8 hours): 12.67
Precipitate ([2]; 25 mM/RT, 48 hours): None
Solubility ([2]; 25 mM/RT, 48 hours): Excellent
pH ([2]; 25 mM/RT, 48 hours): 12.71
Color ([2]; 50 mM/2-8 C.°, 0 hours): Transparent; also recorded: Pale yellow
Precipitate ([2]; 50 mM/2-8 C.°, 0 hours): None
Solubility ([2]; 50 mM/2-8 C.°, 0 hours): Excellent
pH ([2]; 50 mM/2-8 C.°, 0 hours): 12.67
Precipitate ([2]; 50 mM/2-8 C.°, 8 hours): None
Solubility ([2]; 50 mM/2-8 C.°, 8 hours): Excellent
pH ([2]; 50 mM/2-8 C.°, 8 hours): 12.61
Precipitate ([2]; 50 mM/2-8 C.°, 48 hours): None
Solubility ([2]; 50 mM/2-8 C.°, 48 hours): Excellent
pH ([2]; 50 mM/2-8 C.°, 48 hours): 12.64
Precipitate ([2]; 50 mM/RT, 0 hours): None
Solubility ([2]; 50 mM/RT, 0 hours): Excellent
pH ([2]; 50 mM/RT, 0 hours): 12.61
Precipitate ([2]; 50 mM/RT, 8 hours): None
Solubility ([2]; 50 mM/RT, 8 hours): Excellent
pH ([2]; 50 mM/RT, 8 hours): 12.69
Precipitate ([2]; 50 mM/RT, 48 hours): None
Solubility ([2]; 50 mM/RT, 48 hours): Excellent
pH ([2]; 50 mM/RT, 48 hours): 12.72
stability (lack of discoloration and/or formation of precipitate) ([2]; aqueous solution at pH ~12): relative stability
solubility in cleave reagent formulations ([2]; over a range of concentrations): highly soluble
solubility in aqueous solution ([2]; pH ~12): highly soluble
Compound: O=C(O)CCc1c[nH]c2ccccc12 [IPA, indole-3-propionic acid]
stability against discoloration and precipitation ([2]; Cleave Reagent formulations, prolonged storage at room temperature): stable against discoloration and precipitation
